From paper PMC3504066 (PLoS ONE, 2012)

How the values were obtained:
Noxa = Noxa protein expression by Western blot in NCI-H1975 cells; format: cell-based; conditions: 3 to 4 µM for 24 h
Method: (§1) Cells were suspended in lysis buffer (50 mM Tris-HCl (pH 7.4), 150 mM NaCl, 1% triton X-100, 1% sodium deoxycholate, 0.1% SDS, 1 mM Na3VO4, 1 mM NaF, 1 mM EDTA, 1 mM PMSF, complete protease inhibitor cocktail) and cleared by centrifugation to obtain whole-cell lysates. Equal amounts of samples were separated by SDS-PAGE, transferred to nitrocellulose and immunoblotted with antibody indicated.

NCI-H1975 cells [1] = experiment: NCI-H1975 xenograft model in nude mice; format: in vivo; conditions: 30 mg/kg/day oral, 3 weeks; for tumor growth: nude mice with subcutaneous NCI-H1975 tumors
Method: All animal studies were conducted according to protocols approved by the Animal Ethics Committee of the Institute of Zoology, Chinese Academy of Sciences, with the approval ID of AEC2011030205. All mice used in this study were bred and maintained in a specific pathogen-free environment. NCI-H1975 cells (2.5×10^6) were injected subcutaneously into the right flank of nude mice. […]. Animals were sacrificed when tumors reached 2 cm or if the mice appeared moribund to prevent unnecessary morbidity to the mice. At the time of the animals' death, tumors were excised; cells were separated and lyzed for Western blotting using anti-Noxa antibody and anti-Actin antibodies. Noxa expression was then quantified by densitometry analysis and normalized against Actin expression.
We tested the in vivo anti-tumor efficacy of V1801. […]. Animals were euthanized when they were treated for 3 weeks and the tumor samples were isolated and imaged (Fig. 6c). Proteins were extracted from tumor samples and Western blot assay was conducted. […]

NCI-H1975 cells [2] = experiment: Cytotoxicity / cell proliferation (MTT assay) in NCI-H1975 cells; format: cell-based; conditions: for IC50: Homo sapiens, NCI-H1975
Method: (§2) Cell proliferation was determined using MTT assay. Cell viability was estimated by trypan blue dye exclusion. Externalization of phosphatidylserine was tested using an Annexin V/PI Apoptosis Detection kit (BD Biosciences, San Jose, CA) according to manufacturer's instruction.

EGFR kinase = molecular target: T1, EGFR kinase (Homo sapiens, UniProt P00533); experiment: In vitro EGFR kinase assay (ADP-Glo Kinase Assay Kit, EGFR Kinase Enzyme System); format: biochemical
T1 construct: purchased Promega
T1 sequence (P00533 25-1210): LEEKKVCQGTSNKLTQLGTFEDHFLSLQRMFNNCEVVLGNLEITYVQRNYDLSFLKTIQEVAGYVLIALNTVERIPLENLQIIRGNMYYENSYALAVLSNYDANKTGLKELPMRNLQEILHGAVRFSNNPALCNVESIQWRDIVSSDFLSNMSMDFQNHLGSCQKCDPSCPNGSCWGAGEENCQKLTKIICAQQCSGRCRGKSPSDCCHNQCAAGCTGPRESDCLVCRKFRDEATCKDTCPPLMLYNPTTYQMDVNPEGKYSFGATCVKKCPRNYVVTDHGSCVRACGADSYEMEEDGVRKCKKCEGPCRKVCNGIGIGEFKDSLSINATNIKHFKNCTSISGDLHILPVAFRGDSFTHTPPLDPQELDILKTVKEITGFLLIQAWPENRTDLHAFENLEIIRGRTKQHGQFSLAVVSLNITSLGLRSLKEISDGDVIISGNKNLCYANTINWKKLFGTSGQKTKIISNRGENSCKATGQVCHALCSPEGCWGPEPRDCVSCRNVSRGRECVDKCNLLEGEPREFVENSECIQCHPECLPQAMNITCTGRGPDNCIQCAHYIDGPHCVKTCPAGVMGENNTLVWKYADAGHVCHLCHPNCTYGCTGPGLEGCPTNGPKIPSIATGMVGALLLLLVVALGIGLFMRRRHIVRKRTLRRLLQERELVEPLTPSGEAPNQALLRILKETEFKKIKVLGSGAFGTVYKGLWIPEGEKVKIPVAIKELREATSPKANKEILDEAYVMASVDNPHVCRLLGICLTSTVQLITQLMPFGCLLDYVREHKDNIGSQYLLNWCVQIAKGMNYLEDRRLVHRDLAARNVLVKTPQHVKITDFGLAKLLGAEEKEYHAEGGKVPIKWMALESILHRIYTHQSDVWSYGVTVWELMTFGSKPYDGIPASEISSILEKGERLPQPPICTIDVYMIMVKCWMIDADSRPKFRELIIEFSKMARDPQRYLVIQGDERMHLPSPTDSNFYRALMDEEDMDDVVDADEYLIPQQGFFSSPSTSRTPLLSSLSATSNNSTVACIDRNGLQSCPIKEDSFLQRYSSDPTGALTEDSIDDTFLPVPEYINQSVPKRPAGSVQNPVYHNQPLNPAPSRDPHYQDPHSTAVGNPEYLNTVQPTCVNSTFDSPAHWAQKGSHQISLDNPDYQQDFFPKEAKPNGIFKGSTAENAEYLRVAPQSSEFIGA
Method: In vitro kinase inhibitory ability was determined using the ADP-Glo™ Kinase Assay Kit and EGFR Kinase Enzyme System (Promega), following the manufacturer's instructions.

A549 cells [3] = experiment: Cell proliferation (MTT assay) in A549 cells; format: cell-based; conditions: wild type EGFR-expressing A549, MTT assay, 48 h, dose-dependent
Method: as §2, with “instruction. After staining with Hoechst 33258 at 10 µg/ml for 10 min, cell death was assessed by a fluorescence microscope (Leica).” for “instruction.”

A549 cells [4] = experiment: Apoptosis by Annexin V/PI staining and flow cytometry in A549 cells; format: cell-based; conditions: 24 h
Method: as §2, with “instruction. After staining with Hoechst 33258 at 10 µg/ml for 10 min, cell death was assessed by a fluorescence microscope (Leica).” for “instruction.”

NCI-H1975 cells [5] = experiment: Soft-agar colony formation (clonogenic) assay; format: cell-based; conditions: 3 µM for 12 h, colonies after 2 weeks; compared to gefitinib or vehicle control
Description: To this end, trypsinized cells were suspended in RPMI 1640 medium containing 10% FBS and low-melting-point 0.3% agarose (Amresco, Solon, OH) and subsequently overlaid onto a solidified layer of RPMI 1640 medium containing 10% FBS and 0.6% agarose in 35 mm plate (5,000 cells/plate) in triplicate. After 2 weeks, the colonies were fixed in 90% ethanol and stained with 0.005% crystal violet (Sigma). The colony forming units with more than 100 cells were counted using a light microscope.

NCI-H1975 cells [6] = experiment: Combination of V1801 and bortezomib in NCI-H1975 cells (MTT, combination index); format: cell-based; conditions: 24 h
Method: as §2, with “instruction. After staining with Hoechst 33258 at 10 µg/ml for 10 min, cell death was assessed by a fluorescence microscope (Leica).” for “instruction.”
The interaction between compounds was quantified by determining the combination index (CI) calculated by the Chou–Talalay equation [29], [30]. The general equation for the classic isobologram is given by: CI = (D)1/(Dx)1+(D)2/(Dx)2. Where Dx indicates the dose of one compound alone required to produce an effect, (D)1 and (D)2 are the doses of compounds 1 and 2, respectively, necessary to produce the same effect in combination. From this analysis, the combined effects of the two compounds can be summarized as follows: CI<1 indicates synergism; CI = 1 indicates additive effect; and CI>1 indicates antagonism.

NCI-H1975 cells [7] = experiment: Apoptosis by Annexin V/PI staining and flow cytometry in NCI-H1975 cells; format: cell-based; conditions: 24 h
Method: as §2, with “instruction. After staining with Hoechst 33258 at 10 µg/ml for 10 min, cell death was assessed by a fluorescence microscope (Leica).” for “instruction.”

[8] = test system: phosphorylated EGFR (p-EGFR); experiment: Western blot of phosphorylated EGFR in NCI-H1975 cells; format: cell-based; conditions: 12 h
Method: as §1

[9] = test system: phosphorylated EGFR (p-EGFR); experiment: Western blot of phosphorylated EGFR in HCC827 cells; format: cell-based; conditions: gefitinib-sensitive HCC827 cells, 12 h
Method: as §1

[10] = L858R/T790M-EGFR harboring NSCLC cells

| Compound | IC50 (EGFR kinase) | IC50 (NCI-H1975 cells [2]; [10]) | also measured |
| --- | --- | --- | --- |
| COc1cc2ncnc(Nc3ccc(F)c(Cl)c3)c2cc1OCCCN1CCOCC1 [Gefitinib, N-(3-chloro-4-fluoro-phenyl)-7-methoxy-6-(3-morpholin-4-ylpropoxy) quinazolin-4-amine, reference compound] |  |  | Noxa protein level (Noxa): failed to up-regulate; tumor growth (NCI-H1975 cells [1]): does not show therapeutic benefit |
| COc1cc2c(Nc3cc(C(F)(F)F)ccc3Cl)ncnc2cc1OCCCN=[N+]=[N-] [V1301] | > 10 µM | > 10 µM |  |
| CCCCCCc1cn(CCCOc2cc3ncnc(Nc4cc(C(F)(F)F)ccc4Cl)c3cc2OC)nn1 [V1302] | > 10 µM | > 10 µM |  |
| COc1cc2c(Nc3cc(C(F)(F)F)ccc3Cl)ncnc2cc1OCCCn1cnnn1 [V1303] | > 10 µM | > 10 µM |  |
| C=CCOc1cc2ncnc(Nc3cc(C(F)(F)F)ccc3Cl)c2cc1OC [V1304] | > 10 µM |  |  |
| COc1cc2c(Nc3cc(C(F)(F)F)ccc3Cl)ncnc2cc1OCCCN1CCOCC1 [V1305] | > 10 µM |  |  |
| COc1cc2c(Nc3cc(C(F)(F)F)ccc3Cl)ncnc2cc1OCCN1CCCCC1 [V1306] | > 10 µM |  |  |
| COc1cc2c(Nc3ccc4c(C(F)(F)F)cc(=O)oc4c3)ncnc2cc1OCCCN1CCCCC1 [V1803] |  |  | IC50 NCI-H1975 cells (NCI-H1975 cells [2]; [10]): Insoluble |
| COc1cc2c(Nc3cc(C(F)(F)F)ccc3Cl)ncnc2cc1OCCCC1CCCCC1 [V1806] | > 10 µM | > 10 µM |  |
| COc1cc2c(Nc3cc(C(F)(F)F)cc(C(F)(F)F)c3)ncnc2cc1OCCCN1CCCCC1 [V1807] | > 10 µM | 7.5 µM |  |
| CC(C)C[C@H](NC(=O)[C@H](Cc1ccccc1)NC(=O)c1cnccn1)B(O)O [bortezomib, reference compound] |  |  | enhancement of V1801-caused inhibition of cell proliferation (NCI-H1975 cells [6]; bortezomib 10 to 15 nM with V1801 2 µM, MTT): significantly enhanced |

More lines, main results first:

| IC50 (EGFR kinase) | Compound | IC50 (NCI-H1975 cells [2]; [10]) | also measured |
| --- | --- | --- | --- |
| 0.702 µM | COc1cc2c(Nc3cc(C(F)(F)F)ccc3Br)ncnc2cc1OCCCN1CCCCC1 [V1801, N-(2-bromo-5-(trifluoromethyl)phenyl)-6-methoxy-7-(3-(piperidin-1-yl)propoxy)quinazolin-4-amine] | 3 µM | inhibition of proliferation of A549 cells (A549 cells [3]): significant inhibitory effects; induction of apoptosis (A549 cells [4]): induced apoptosis; clonogenic activity of NCI-H1975 cells (NCI-H1975 cells [5]): drastically inhibited; combination index (CI) (NCI-H1975 cells [6]; V1801 (2 µM) combined with bortezomib 10 to 15 nM, CI<1 indicates synergism): less than 1; inhibition of proliferation of NCI-H1975 cells (NCI-H1975 cells [2]; MTT assay, 48 h, dose-dependent): significant inhibitory effects; Noxa protein level (Noxa): markedly up-regulated; induction of apoptosis (NCI-H1975 cells [7]): induced apoptosis; down-regulation of phosphorylated EGFR (p-EGFR) [8]: failed to down-regulate; tumor growth (NCI-H1975 cells [1]): significantly inhibited tumor growth; Noxa expression in tumor samples (NCI-H1975 cells [1]; Western blot, compared with vehicle or gefitinib control mice): up-regulated; de-phosphorylation of p-EGFR [9]: not |
| 0.623 µM | COc1cc2c(Nc3ccc(Br)c(C(F)(F)F)c3)ncnc2cc1OCCCN1CCCCC1 [V1802] | 7.8 µM |  |
| 2 µM | COc1cc2c(Nc3ccc4nc(C(F)(F)F)[nH]c4c3)ncnc2cc1OCCCN1CCCCC1 [V1804] | > 10 µM |  |
| 0.12 µM | COc1cc2c(Nc3cc(C(F)(F)F)ccc3F)ncnc2cc1OCCCN1CCCCC1 [V1805] | > 10 µM |  |
| 2.67 µM | COc1cc2c(Nc3cc(C(F)(F)F)ccc3Cl)ncnc2cc1OCCCN1CCCCC1 [V1808] | 18.2 µM |  |
